{"source": "patent US20030073629A1", "about": "“Omi and domains thereof that disrupt IAP-caspase interaction” (priority 2001, published 2003)", "key": {"[1]": {"tested_on": "Jurkat and HL-60 cells", "assay": "Release of Omi, Smac and cytochrome c to the cytosol and procaspase-3 processing (immunoblot of cytosolic extracts)", "type": "cell-based, human", "conditions": "staurosporine 2 μM", "method": "FIG. 13 is a scanned image of a blot representing cytosolic extracts from human Jurkat and HL-60 cells bound to GST-BIR3 and immunoblotted with Omi (top panels), Smac (second panels), Cytochrome c (third panels), or caspase-3 (lower panels) antibodies.\nFIG. 14 is a scanned image of a blot representing cytosolic extracts of Jurkat cells treated with TRAIL (1 μg/ml) for the indicated time periods and analyzed by immunoblotting with Omi (top panel), Smac (middle panel), or cytochrome c (bottom panel) antibodies.\nTo determine whether Omi is released together with Smac and cytochrome c from the mitochondria to the cytoplasm during apoptosis, we treated Jurkat and HL-60 cells with staurosporine (2 μM), which is known to induce the mitochondrial apoptotic pathway, and analyzed their cytosolic extracts by immunoblot analysis. […] Processing of procaspase-3 also followed a similar time course with maximum processing observed at 6-8 hours after treatment. Very little or no Omi or Smac proteins or processing of procaspase-3 were detected in the extracts at zero-time points."}, "[2]": {"tested_on": "Hela cells", "assay": "Immunofluorescence confocal microscopy of Omi in Hela cells", "type": "cell-based, human", "conditions": "staurosporine 1 μM, 5 hours; untreated cells mostly punctate and perinuclear"}, "[3]": {"tested_on": "MCF-7 cells", "assay": "Apoptosis of MCF-7 cells transfected with cytosolic Omi-GFP fusion proteins", "type": "cell-based", "conditions": "zVAD-FMK 20 μM; MCF-7 cells transfected with M-Omi-GFP", "method": "FIG. 20 provides schematic diagrams of the Omi-GFP and GFP-IETD-Omi constructs used to assay the ability of Omi to induce apoptosis or to enhance apoptosis by other stimuli.\nFIG. 21 is a bar graphic representation of the percentages of GFP-positive apoptotic MCF-7 cells 36 hours following transfection with M-Omi-S/A-GFP or pEGFP-N1 alone or M-Omi-GFP together with empty vector or expression construct encoding XIAP, XIAP-BIR3, or caspase-9DN. The cells were also transfected with M-Omi-GFP expression construct in the presence of zVAD-FMK (20 μM)."}, "[4]": {"tested_on": "293 and MCF-7 cells", "assay": "Caspase-dependent processing of GFP-IETD-Omi at the IETD site in transfected cells (immunoblot)", "type": "cell-based", "conditions": "cytosolic extracts, zVAD-FMK 20 μM", "method": "FIG. 23 is a scanned image of an immunoblot with Flag-HRP antibody of MCF-7 and 293T cells 24 hours following transfected with pEGFP or M-Omi-Flag, GFP-IETD-AVP (AVP) or GFP-IETD-SSA (SSA) expression constructs in the presence or absence of zVAD-FMK (20μM). M-Omi-Flag is similar to the M-Omi-GFP shown in FIG. 20, except that the GFP tag was replaced with a Flag tag.\n(§1) Next, the contribution of the IAP binding activity of Omi to its proapoptotic activity was tested. The MTS of Omi was replaced with a GFP-IETD sequence and mutated at its active site Ser306 to Ala (FIG. 20, GFP-IETD-AVP). Of note, the presence of the IETD sequence between GFP and Omi-S/A allowed caspase-dependent cleavage at the IETD site after the Asp residue and release of mature Omi-S/A in the cytosol of the transfected 293 and MCF-7 cells (FIG. 23). […] Taken together, Omi not only can induce apoptosis through its serine protease activity but also via its ability to bind and neutralize IAPs."}, "[5]": {"target": "T1, XIAP-BIR3 (Homo sapiens, UniProt P98170)", "T1 construct": "Omi associates directly with the BIR3 domain of XIAP", "T1 sequence (P98170 238-358 limits assumed)": "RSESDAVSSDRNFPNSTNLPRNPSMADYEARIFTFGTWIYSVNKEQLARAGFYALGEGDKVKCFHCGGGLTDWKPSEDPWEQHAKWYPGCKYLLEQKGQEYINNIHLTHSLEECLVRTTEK", "assay": "GST-BIR3 precipitation of extracts of transfected 293T cells", "type": "binding", "conditions": "24 hours after transfection", "method": "FIG. 24 is a scanned image of an immunoblot with Flag-HRP antibody of 293T cells extracts precipitated with GST-BIR3 24 hours after transfection with the indicated expression constructs extracts.\nas §1"}}, "note": "Where a SMILES comes first, the peptide text is derived from it. The star is where a group is joined. Cbz = O=C(OCc1ccccc1)*; CH2F = FC*"}
{"molecule": "CN[C@@H]1C[C@H]2O[C@@](C)([C@@H]1OC)n1c3ccccc3c3c4c(c5c6ccccc6n2c5c31)C(=O)NC4", "note": "[staurosporine]", "values": [{"measurement": "accumulation of cytochrome c, Smac and Omi in the cytosol", "setting": "[1]", "value": "accumulated in the cytosol of these cells in a time dependent manner"}, {"measurement": "time of maximum processing of procaspase-3 after treatment", "setting": "[1]", "value": "6 to 8", "unit": "h"}, {"measurement": "immunofluorescence staining pattern of Omi", "setting": "[2]", "value": "showed diffused immunofluorescence staining of Omi"}]}
{"molecule": "COC(=O)C[C@H](NC(=O)[C@H](C)NC(=O)[C@@H](NC(=O)OCc1ccccc1)C(C)C)C(=O)CF", "note": "[zVAD-FMK, reference compound] (Cbz-Val-Ala-Asp(OMe)-CH2F)", "values": [{"measurement": "block of M-Omi-GFP-induced apoptosis", "setting": "[3]", "value": "did not block the ability of M-Omi-GFP to induce apoptosis"}, {"measurement": "processing at the IETD site", "setting": "[4]", "value": "very little or no processing at the IETD site was observed"}]}
{"molecule": "mature Omi-S/A: mature Omi-S/A released in the cytosol by caspase-dependent cleavage of GFP-IETD-AVP at the IETD site", "values": [{"measurement": "binding to XIAP-BIR3 (GST-BIR3)", "setting": "[5]", "value": "able to bind the GST-BIR3 fusion protein"}]}
